Here are results for one molecule from US20220323548A1 (priority 2019, published 2022).

One series concerns rat islets. Briefly: Glucose-dependent insulin secretion from rat islets, rat insulin ELISA (part I). The series is classed as cell-based. The note with it: 28 mM glucose, Table 4. Background: An ELISA detects its analyte on a solid surface through an enzyme-linked reagent.
In the next series the target is human GLP-1R (Homo sapiens, UniProt P43220). Briefly: GLP-1 receptor luciferase reporter assay (part I, glycosylated analogs). The class given is cell-based. The following applies: CV-1 cells transfected with human GLP-1R and CRE, Table 2. (Reporter assays use an easily measured gene product as a stand-in for the process of interest.)
human GLP-1R, sequence (P43220 24-463): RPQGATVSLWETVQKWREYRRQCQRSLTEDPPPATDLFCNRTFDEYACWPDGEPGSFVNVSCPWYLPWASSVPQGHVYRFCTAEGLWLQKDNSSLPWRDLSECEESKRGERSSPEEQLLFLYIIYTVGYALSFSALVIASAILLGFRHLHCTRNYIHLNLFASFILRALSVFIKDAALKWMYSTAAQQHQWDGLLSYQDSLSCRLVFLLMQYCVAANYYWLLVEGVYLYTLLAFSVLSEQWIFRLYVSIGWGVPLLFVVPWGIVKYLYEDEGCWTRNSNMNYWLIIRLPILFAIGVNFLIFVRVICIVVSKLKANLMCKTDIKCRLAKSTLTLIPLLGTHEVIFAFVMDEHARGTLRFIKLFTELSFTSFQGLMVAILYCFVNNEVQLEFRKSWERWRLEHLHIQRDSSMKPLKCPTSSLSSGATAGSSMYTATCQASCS
The nature of the next series: Solubility by HPLC. The series is classed as physicochemical. The following applies: at 10 mg/ml.

Procedure for human GLP-1R: Specifically, the fibroblast cell line CV-1 (1×10^4 cells/ml, Korea Cell Line Bank) was cultured on a 96-well white cell culture plate for 24 hours, and then human GLP-1R (pcDNA3.1_hGLP-1R) and cAMP response element (CRE, pcDNA3.1_hCRE) were added to perform transfection. After 24 hours, the medium was exchanged with a serum-free medium, followed by culture for 16 hours, and then each analog was treated for 6 hours. The expression level of luciferase, a reporter gene, by activated GLP-1R, was quantified by a luminometer, and the results are shown in Table 2.
Source text for rat islets: Specifically, the pancreas of 8-week-old SD rats (Damul Science) was extracted, and islets were isolated.

With `CCCCCCCCCC(=O)NCCCC[C@H](NC(=O)[C@H](CO)NC(=O)[C@@H]1CCCN1C(=O)CNC(=O)CNC(=O)[C@H](CSCC(=O)N[C@@H]1O[C@H](CO)[C@@H](O[C@@H]2O[C@H](CO)[C@@H](O[C@@H]3O[C@H](CO[C@H]4O[C@H](CO)[C@@H](O)[C@H](O)[C@@H]4O[C@@H]4O[C@H](CO)[C@@H](O[C@@H]5O[C@H](CO[C@]6(C(=O)OCc7ccccc7)C[C@H](O)[C@@H](NC(C)=O)[C@H]([C@H](O)[C@H](O)CO)O6)[C@H](O)[C@H](O)[C@H]5O)[C@H](O)[C@H]4NC(C)=O)[C@@H](O)[C@H](O[C@H]4O[C@H](CO)[C@@H](O)[C@H](O)[C@@H]4O[C@@H]4O[C@H](CO)[C@@H](O[C@@H]5O[C@H](CO[C@]6(C(=O)OCc7ccccc7)C[C@H](O)[C@@H](NC(C)=O)[C@H]([C@H](O)[C@H](O)CO)O6)[C@H](O)[C@H](O)[C@H]5O)[C@H](O)[C@H]4NC(C)=O)[C@@H]3O)[C@H](O)[C@H]2NC(C)=O)[C@H](O)[C@H]1NC(C)=O)NC(=O)[C@H](CCCCN)NC(=O)[C@H](CC(C)C)NC(=O)[C@H](Cc1c[nH]c2ccccc12)NC(=O)[C@H](CCC(=O)O)NC(=O)[C@@H](NC(=O)[C@H](Cc1ccccc1)NC(=O)[C@H](CC(C)C)NC(=O)[C@H](CCCNC(=N)N)NC(=O)[C@@H](NC(=O)[C@H](C)NC(=O)[C@H](CSCC(=O)N[C@@H]1O[C@H](CO)[C@@H](O[C@@H]2O[C@H](CO)[C@@H](O[C@@H]3O[C@H](CO[C@H]4O[C@H](CO)[C@@H](O)[C@H](O)[C@@H]4O[C@@H]4O[C@H](CO)[C@@H](O[C@@H]5O[C@H](CO[C@]6(C(=O)OCc7ccccc7)C[C@H](O)[C@@H](NC(C)=O)[C@H]([C@H](O)[C@H](O)CO)O6)[C@H](O)[C@H](O)[C@H]5O)[C@H](O)[C@H]4NC(C)=O)[C@@H](O)[C@H](O[C@H]4O[C@H](CO)[C@@H](O)[C@H](O)[C@@H]4O[C@@H]4O[C@H](CO)[C@@H](O[C@@H]5O[C@H](CO[C@]6(C(=O)OCc7ccccc7)C[C@H](O)[C@@H](NC(C)=O)[C@H]([C@H](O)[C@H](O)CO)O6)[C@H](O)[C@H](O)[C@H]5O)[C@H](O)[C@H]4NC(C)=O)[C@@H]3O)[C@H](O)[C@H]2NC(C)=O)[C@H](O)[C@H]1NC(C)=O)NC(=O)[C@H](CCC(=O)O)NC(=O)[C@H](CCC(=O)O)NC(=O)[C@H](CCSC)NC(=O)[C@H](CCC(N)=O)NC(=O)[C@H](CCCCN)NC(=O)[C@H](CO)NC(=O)[C@H](CC(C)C)NC(=O)[C@H](CC(=O)O)NC(=O)[C@H](CO)NC(=O)[C@@H](NC(=O)[C@H](Cc1ccccc1)NC(=O)[C@@H](NC(=O)CNC(=O)[C@H](CCC(=O)O)NC(=O)CNC(=O)[C@@H](N)Cc1c[nH]cn1)[C@@H](C)O)[C@@H](C)O)C(C)C)[C@@H](C)CC)C(=O)O` [AGM-212(E17C-11 sugar & N28C-11 sugar)], the “Insulin secretion from rat islets” value was determined as 11250.94 ± 624.53 pg/mL in the series with rat islets (10 nM analog) and 22183.40 ± 830.19 pg/mL in the series on rat islets (100 nM analog). Besides, the “Emax (fold induction over basal)” value at human GLP-1R was 9.8 ± 1.3 fold induction over basal. Moreover, the solubility (in general, the concentration that dissolves in the medium under given conditions) in the series “Solubility by HPLC” (H2O) was less than 8300 µg/mL; in the series “Solubility by HPLC” (PBS), less than 9500 µg/mL.
